In PubChem BioAssay AID1224920 (Broad Institute, 2016):
pIC50: −log10 of the molar value. Where “and” joins values, the source holds several entries; their conditions need not be identical. Equal values may be shown once. Calls of active or inactive are those of the source.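 How the source made its calls: active means IC50 no higher than ten times the top tested dose; inconclusive means flat fit with 30 to 70% inhibition, or poor fit; inactive means IC50 above ten times the top dose.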

System: Clostridium difficile clinical isolate growth, OD600, 24 h
Experiment: growth modulation of Clostridium difficile isolate – OD600, 9-point, retest, dose response (AID 1224920);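 further: inhibitors lower culture turbidity so OD600 falls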

SMILES	pIC50	IC50
C(=C\c1ccc(C2[C@@H]3CN(Cc4cccnc4)C[C@H]2N3)cc1)/c1ccccc1 (stereo partly specified)	4.28 and 4.25	
O=C(C1CCCC1)N1C[C@@H]2N[C@H](C1)C2c1ccc(/C=C/c2ccccc2)cc1 (stereo partly specified)	4.52	
COc1cc(CN2[C@@H]3CNC[C@H]2C3c2ccc(-c3ccc(C#N)cc3)cc2)cc(OC)c1 (stereo partly specified)	4.32	
OC[C@H]1[C@@H](c2ccc(C#CC3CCCC3)cc2)[C@@H]2CN(CCC(F)(F)F)CCCCN12	4.32	
C/C=C/c1ccc(C2[C@H]3CNC[C@@H]2N3C(=O)Nc2cccc(Cl)c2)cc1 (stereo partly specified)	4.26	
COc1ccc(C#Cc2ccc([C@H]3[C@H](CO)N4CCCCN(Cc5ccccc5F)C[C@@H]34)cc2)cc1	4.96	
Fc1cccc(CN2C[C@@H]3N[C@H](C2)C3c2ccc(/C=C/c3ccccc3)cc2)c1 (stereo partly specified)	5.74 and 5.35	
O=S(=O)(c1ccccc1F)N1[C@@H]2CNC[C@H]1C2c1ccc(/C=C/c2ccccc2)cc1 (stereo partly specified)	4.13	
COc1ccccc1NC(=O)N1CCCCN2[C@@H](CO)[C@@H](c3ccc(-c4ccc(C)cc4)cc3)[C@@H]2C1	4.54	
O=C(Nc1cccc(F)c1)N1C[C@@H]2N[C@H](C1)C2c1ccc(-c2ccccc2F)cc1 (stereo partly specified)	4.57 and 4.19	
Cc1ccccc1-c1ccc(C2[C@@H]3CN(C(=O)c4ccc(F)cc4)C[C@H]2N3)cc1 (stereo partly specified)	4.19	
COc1cc(CN2C[C@@H]3N[C@H](C2)C3c2ccc(-c3ccc(C#N)cc3)cc2)cc(OC)c1 (stereo partly specified)	4.41	
COc1ccccc1S(=O)(=O)N1C[C@@H]2N[C@H](C1)C2c1ccc(-c2cccc(C)c2)cc1 (stereo partly specified)	4.27	
Cc1ccc(-c2ccc(C3[C@H]4CNC[C@@H]3N4S(=O)(=O)c3cccc(C)c3)cc2)cc1 (stereo partly specified)	4.52	
OC[C@@H]1[C@H](c2ccc(-c3ccccc3)cc2)[C@@H]2CN(CCC(F)(F)F)CCCCN12	4.25	
OC[C@@H]1Nc2ccc(-c3ccc(F)cc3)cc2[C@@H]2[C@H]1CCN2Cc1ccc(F)cc1	4.08	
Cc1ccc(-c2ccc(C3[C@@H]4CN(Cc5cccc(F)c5)C[C@H]3N4)cc2)cc1 (stereo partly specified)	5.55 and 4.90	
CCNC(=O)C[C@@H]1CC[C@H]2[C@@H](COC[C@@H](O)CN2C(=O)Nc2ccc(C(F)(F)F)cc2)O1	4.91	
O=C(C[C@@H]1CC[C@@H]2[C@H](COC[C@@H](O)CN2C(=O)Nc2ccc(C(F)(F)F)cc2)O1)NC1Cc2ccccc2C1	5.19	
C/C=C/c1ccc(C2[C@H]3CNC[C@@H]2N3Cc2cc(-c3ccccc3)on2)cc1 (stereo partly specified)	4.49	
O=C(Nc1ccc(C(F)(F)F)cc1)N1[C@@H]2CNC[C@H]1C2c1ccc(-c2ccccc2F)cc1 (stereo partly specified)	4.99 and 4.08	

SMILES	pIC50	IC50
CC(C)CC#Cc1ccc([C@@H]2[C@H](CO)N3CCCCN(C(=O)Nc4ccccc4)C[C@@H]23)cc1	4.88	
CCNC(=O)C[C@@H]1CC[C@@H]2[C@H](COC[C@H](O)CN2C(=O)Nc2ccc(C(F)(F)F)cc2)O1	4.79	
Cc1ccccc1-c1ccc(C2[C@@H]3CN(S(=O)(=O)c4ccccc4)C[C@H]2N3)cc1 (stereo partly specified)	4.25	
COc1cccc(-c2ccc(C3[C@@H]4CN(C(=O)c5ccc(F)cc5)C[C@H]3N4)cc2)c1 (stereo partly specified)	4.18	
Cc1ccccc1-c1ccc([C@H]2[C@@H](CO)N3CCCCN(C(=O)Nc4cccc(F)c4)C[C@H]23)cc1	4.98	
OC[C@H]1[C@@H](c2ccc(-c3cccc(F)c3)cc2)[C@@H]2CN(CCC(F)(F)F)CCCCN12	4.27	
O=C(NC[C@@H]1N[C@@H](CO)[C@H]1c1ccc(C2=CCCCC2)cc1)c1ccc(F)cc1	4.24	
Cc1ccccc1S(=O)(=O)N1C[C@@H]2N[C@H](C1)C2c1ccc(-c2cccc(C#N)c2)cc1 (stereo partly specified)	4.04	
O=S(=O)(c1ccc(F)cc1)N1C[C@@H]2N[C@H](C1)C2c1ccc(-c2ccc(F)cc2)cc1 (stereo partly specified)	3.89	
COc1ccccc1C#Cc1ccc2c(c1)[C@H]1[C@H](CCN1C(=O)c1ccc(F)cc1)[C@@H](CO)N2	> 6.30	
O=C(NC[C@@H]1N[C@@H](CO)[C@H]1c1ccc(C2=CCCCC2)cc1)c1ccccc1	4.18	
OC[C@H]1Nc2ccc(-c3ccc(F)cc3)cc2[C@@H]2[C@H]1CCN2Cc1ccc(F)cc1	4.57	
CCCNC(=O)C[C@@H]1CC[C@H]2[C@@H](COC[C@@H](O)CN2C(=O)Nc2ccc(Cl)c(Cl)c2)O1	5.07	
N#Cc1ccc(-c2ccc(C3[C@@H]4CN(Cc5ccccc5F)C[C@H]3N4)cc2)cc1 (stereo partly specified)	4.45 and 4.58	
Cc1ccccc1-c1ccc(C2[C@H]3CNC[C@@H]2N3Cc2ccc3c(c2)OCO3)cc1 (stereo partly specified)	4.56	
O=C(C[C@H]1CC[C@H]2[C@@H](COC[C@H](O)CN2C(=O)Nc2ccc(C(F)(F)F)cc2)O1)NC1Cc2ccccc2C1	5.42	
C(=C\c1ccc(C2[C@@H]3CN(Cc4cocn4)C[C@H]2N3)cc1)/c1ccccc1 (stereo partly specified)	4.96	
COc1ccccc1S(=O)(=O)N1[C@@H]2CNC[C@H]1C2c1ccc(/C=C/c2ccccc2)cc1 (stereo partly specified)	4.20	
O=S(=O)(Cc1ccccc1)N1CCCCN2[C@H](CO)[C@H](c3ccc(-c4ccc(F)cc4)cc3)[C@H]2C1	4.37	
COc1ccccc1-c1ccc(C2[C@@H]3CN(Cc4cccc(F)c4)C[C@H]2N3)cc1 (stereo partly specified)	5.16	
Fc1ccc(-c2ccc(C3[C@@H]4CN(Cc5nccs5)C[C@H]3N4)cc2)cc1 (stereo partly specified)	4.20	

SMILES	pIC50	IC50
O=C(C[C@@H]1CC[C@H]2[C@@H](COC[C@@H](O)CN2C(=O)Nc2cc(Cl)cc(Cl)c2)O1)N1CCOCC1	4.76	
N#Cc1cccc(-c2ccc(C3[C@H]4CNC[C@@H]3N4Cc3cccc(F)c3)cc2)c1 (stereo partly specified)	4.25	
Cc1ccc(-c2ccc([C@@H]3[C@H](CO)N4CCCCN(C(=O)Nc5cccc(F)c5)C[C@@H]34)cc2)cc1	5.19	
O=C(C[C@H]1CC[C@@H]2[C@H](COC[C@@H](O)CN2C(=O)Nc2ccc(Cl)c(Cl)c2)O1)NC1CCC1	4.56	
Cc1cccc(-c2ccc(C3[C@H]4CNC[C@@H]3N4C(=O)Nc3ccccc3Cl)cc2)c1 (stereo partly specified)	4.48	
Cc1ccccc1-c1ccc(C2[C@@H]3CN(C(=O)NC4CCCCC4)C[C@H]2N3)cc1 (stereo partly specified)	4.24	
O=C(C1CCCCC1)N1C[C@@H]2N[C@H](C1)C2c1ccc(-c2ccccc2F)cc1 (stereo partly specified)	4.25	
COc1cc(CN2C[C@@H]3N[C@H](C2)C3c2ccc(-c3ccccc3C)cc2)cc(OC)c1 (stereo partly specified)	4.73 and 4.86	
OC[C@H]1[C@H](c2ccc(C#CC3CCCC3)cc2)[C@H]2CN(CCC(F)(F)F)CCCCN21	4.77	
O=C(C[C@@H]1CC[C@@H]2[C@H](COC[C@H](O)CN2C(=O)Nc2ccc(C(F)(F)F)cc2)O1)NCC1CCCCC1	5.12	
O=C(Nc1cccc(F)c1)N1C[C@@H]2N[C@H](C1)C2c1ccc(-c2ccc(F)cc2)cc1 (stereo partly specified)	4.29	
O=C(Nc1cccc(F)c1)N1CCCCN2[C@@H](CO)[C@@H](c3ccc(-c4ccccc4F)cc3)[C@@H]2C1	4.88	
C[C@@H]1CN([C@@H](C)CO)C(=O)c2ccccc2-c2ccccc2CO[C@H]1CN(C)Cc1ccccc1C(F)(F)F		> 270 µM (inactive)
Cc1ccc(-c2ccc(C3[C@H]4CNC[C@@H]3N4C(=O)Nc3ccc(F)cc3)cc2)cc1 (stereo partly specified)	4.19	
CCCC#Cc1ccc([C@H]2[C@H](CO)N3CCCCN(S(=O)(=O)c4ccccc4C)C[C@@H]23)cc1		> 240 µM (inactive)
OC[C@H]1[C@H](c2ccc(C#CC3CCCC3)cc2)[C@@H]2CN(CCC(F)(F)F)CCCCN12	4.46	
O=C(Nc1cccc(F)c1)N1CCCCN2[C@H](CO)[C@@H](c3ccc(-c4ccccc4F)cc3)[C@H]2C1	4.53	
Cc1cccc(-c2ccc(C3[C@@H]4CN(Cc5ccccc5)C[C@H]3N4)cc2)c1 (stereo partly specified)	4.77	
Cc1ccc(-c2ccc([C@@H]3[C@H](CO)N4CCCCN(C(=O)Nc5ccccc5)C[C@@H]34)cc2)cc1	4.69	
